Measurements as given in paper PMC9479156 (Frontiers in Pharmacology, 2022).
Like-named read-outs stand apart in the source and are kept apart here.

What was measured:
[1] = system: chloroquine sensitive Pf NF54 strain; conditions: tritiated hypoxanthine assay; ref Figueiredo et al., 1998; Li et al., 2019; cited from earlier work
[2] = system: multidrug resistant Pf K1 strain; conditions: tritiated hypoxanthine assay; ref Figueiredo et al., 1998; Li et al., 2019; cited from earlier work
[3] = system: asexual blood stage P. falciparum NF54 (drug sensitive); assay: SYBR Green I proliferation assay, asexual blood stage Pf NF54; format: cell-based; conditions: Plasmodium falciparum, NF54; asexual blood stage, SYBR Green I, 96 h, mean ± SEM; this study; read-out: IC50 NF54
Method: In vitro cultivation of asexual and gametocyte P. falciparum parasites: P. falciparum asexual blood stage parasites were cultivated in human erythrocytes in RPMI-1640 media supplemented with AlbuMax II under sterile conditions and in a hypoxic environment (90% N2, 5% CO2, and 5% O2) at 37°C as described previously ([Coertzen et al., 2018]; [Wong et al., 2019]). Gametocytes were produced from asexual blood stage parasites in a stage-specific manner through induction of cellular stress as described previously ([Reader et al., 2015]; [Coertzen et al., 2018]; [Wong et al., 2019]; [Reader et al., 2022]).
DHA, artesunate, artemether, chloroquine (CQ), and methylene blue (MB) were used as reference drugs. All assay conditions are as previously described ([Coertzen et al., 2018]; [Wong et al., 2019]). […] Dose-responses were determined using a 2-fold serial drug dilution on in vitro 95% ring-stage intraerythrocytic Pf parasites (1% parasitemia, 1% hematocrit) at 37°C under 90% N2, 5% CO2, and 5% O2 atmospheric conditions, detecting SYBR green I fluorescence as a marker for parasite proliferation following a 96 h drug treatment ([Smilkstein et al., 2004]; [Verlinden et al., 2011]). Activity against the Pf drug-sensitive NF54 strain and the multi drug-resistant K1 (resistant to CQ, quinine, pyrimethamine, and cycloguanil), and W2 (resistant to CQ, quinine, pyrimethamine, and cycloguanil) strains was evaluated. […] Data analysis was performed using GraphPad Prism (version 6) software, intra-assay variability was monitored with Z-factors, and acceptable inter-assay reproducibility was determined from the percent coefficient of variation (CV) ([Reader et al., 2015]). […]
Activity was determined using the SYBR Green I based fluorescence assay on asexual blood stages of the NF54 (drug sensitive), K1 and W2 (drug resistant) strains of P. falciparum. […] Also included in Table 1 for direct comparison of activities against celastrol are data for the internal reference standards MB and artemisone recorded at the same time as for celastrol. […]

[4] = system: asexual blood stage Pf NF54; assay: Fixed-ratio isobole drug combination assay (SYBR Green I); format: cell-based, Plasmodium falciparum
Method: The in vitro interactions of celastrol with artemisone and MB was determined using a fixed-ratio isobole analysis on Pf NF54 asexual parasites (SYBR Green I-based fluorescence). […] The fractional inhibitory concentration (FIC) for each drug in the combination was calculated as follows:
FIC = IC50 of drug A in combination with drug B/IC50 of drug A
The paired FIC values for the drugs in each combination were linearly plotted to provide the isobologram. The ΣFIC of FIC of drug A in combination with FIC of drug B was determined by calculating the mean FIC value, to obtain the representative FIC value for the drug combination. Data obtained were analysed in Excel, and sigmoidal dose-response curves and isobolograms were plotted using GraphPad 6.0. Experiments were performed in triplicate, and repeated 3 times.
As previously recorded for each of artemiside and artemisone in combination with MB ([Coertzen et al., 2018]), drug-drug interactions were monitored through evaluation of fractional inhibitory concentration (FIC) as determined by isobolograms. A mean ΣFIC<1.0 represents a synergistic interaction, >1.3 an antagonistic interaction and ΣFIC = 1 an indifferent or additive interaction. Isobologram analysis of the combinations of each of artemisone and MB in combination with celastrol was performed against the asexual stages of Pf NF54 using the SYBR Green I based assay. In Table 3 are shown the calculated FIC values for the independent combinations at each ratio as well as the ∑FIC values for each combination. In Figure 5 are presented the independent isoboles for each drug combination.

[5] = system: asexual blood stage P. falciparum NF54 (drug sensitive); parameters: method as in Coertzen et al., 2018; Wong et al., 2019; conditions: SYBR Green I, mean ± SEM, ref Coertzen et al., 2018, Wong et al., 2019; cited from earlier work
[6] = system: asexual blood stage P. falciparum K1 (multidrug resistant); conditions: asexual blood stage, SYBR Green I, mean ± SEM; ref Coertzen et al., 2018; Wong et al., 2019; cited from earlier work
[7] = system: asexual blood stage P. falciparum W2 (multidrug resistant); parameters: method as in Coertzen et al., 2018; Wong et al., 2019; conditions: asexual blood stage, SYBR Green I, mean ± SEM; ref Coertzen et al., 2018; Wong et al., 2019; cited from earlier work
[8] = system: immature stage II-III P. falciparum NF54 gametocytes; parameters: method as in Coertzen et al., 2018, Wong et al., 2019; conditions: NF54 gametocytes, luciferase, 48 h, mean ± SEM; ref Coertzen et al., 2018, Wong et al., 2019; read-out: Immature stage II-III (luc 48 h) IC50; cited from earlier work
[9] = system: late stage IV-V P. falciparum NF54 gametocytes; parameters: method as in Coertzen et al., 2018, Wong et al., 2019; conditions: NF54 gametocytes, luciferase, 72 h, mean ± SEM; ref Coertzen et al., 2018, Wong et al., 2019; read-out: Late stage IV-V (luc 72 h) IC50; cited from earlier work
[10] = system: Pf; parameters: method as in Lanfranchi et al., 2012; conditions: tritiated hypoxanthine assay; ref Lanfranchi et al., 2012; cited from earlier work

## COC(=O)[C@]1(C)CC[C@]2(C)CC[C@]3(C)C4=CC=C5C(=CC(=O)C(O)=C5C)[C@]4(C)CC[C@@]3(C)[C@@H]2C1 [Pristimerin, pristimerin, reference compound]
[1]
  IC50: 583 nM
[2]
  IC50: 409 nM

## CN(C)c1ccc2nc3ccc(=[N+](C)C)cc-3sc2c1 [Methylene Blue, methylene blue, reference compound]
[3]
  IC50: 5.9 ± 0.8 nM
[4]; MB:celastrol drug ratio 20:80, Pf NF54
  FIC: 0.70
[4]; MB:celastrol drug ratio 40:60, Pf NF54
  FIC: 0.67
[4]; MB:celastrol drug ratio 60:40, Pf NF54
  FIC: 0.66
[4]; MB:celastrol drug ratio 80:20, Pf NF54
  FIC: 0.79
[5]
  IC50: 5 nM
[6]
  IC50: 6.45 ± 0.3 nM
[7]
  IC50: 5.13 ± 0.31 nM
[8]
  IC50: 95 ± 11.3 nM
[9]
  IC50: 143 ± 16.7 nM

## CC1=CC(=O)c2ccccc2C1=O [menadione]
[10]
  IC50: 9600 to 12000 nM
